Each block holds one compound with its values, some of them ahead of it.
Tests used:
[1] = molecular target: T1, Melatonin receptor type 1B (Homo sapiens, UniProt P49286); test: Displacement of 2-[125I]iodomelatonin from human MT2 receptor expressed in CHO cell membranes after 120 mins
T1 sequence (P49286 whole entry): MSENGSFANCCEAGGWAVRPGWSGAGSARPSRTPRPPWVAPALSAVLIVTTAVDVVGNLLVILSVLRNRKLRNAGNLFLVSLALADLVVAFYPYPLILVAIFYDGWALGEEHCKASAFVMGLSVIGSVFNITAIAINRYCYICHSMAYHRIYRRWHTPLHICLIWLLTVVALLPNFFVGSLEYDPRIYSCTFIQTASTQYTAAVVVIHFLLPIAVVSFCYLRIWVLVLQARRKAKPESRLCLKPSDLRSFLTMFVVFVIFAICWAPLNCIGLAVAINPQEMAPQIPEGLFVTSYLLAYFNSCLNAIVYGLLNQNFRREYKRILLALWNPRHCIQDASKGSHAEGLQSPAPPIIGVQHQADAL

[2] = molecular target: T1, Melatonin receptor type 1B; test: Intrinsic activity at human MT2 receptor expressed in CHO cell membranes after 1 hr by [35S]GTPgammaS binding assay; assay type: functional
[3] = molecular target: T2, 5-hydroxytryptamine receptor 2C (Homo sapiens, UniProt P28335); test: Binding affinity to 5-HT2C receptor (unknown origin)
T2 sequence (P28335 whole entry): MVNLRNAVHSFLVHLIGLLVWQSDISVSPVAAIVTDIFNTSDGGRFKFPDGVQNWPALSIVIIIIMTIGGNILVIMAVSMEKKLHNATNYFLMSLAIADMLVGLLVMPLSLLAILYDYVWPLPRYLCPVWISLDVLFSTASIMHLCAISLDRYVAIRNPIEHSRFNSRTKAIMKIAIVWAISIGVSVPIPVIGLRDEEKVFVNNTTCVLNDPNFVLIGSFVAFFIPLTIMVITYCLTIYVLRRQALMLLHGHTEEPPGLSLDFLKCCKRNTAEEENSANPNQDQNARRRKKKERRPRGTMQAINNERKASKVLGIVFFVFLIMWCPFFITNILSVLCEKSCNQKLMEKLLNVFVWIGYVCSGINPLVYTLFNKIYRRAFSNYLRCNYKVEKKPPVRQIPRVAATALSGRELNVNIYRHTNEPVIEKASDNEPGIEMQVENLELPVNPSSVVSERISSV

[4] = molecular target: T3, Melatonin receptor type 1A (Homo sapiens, UniProt P48039); test: Displacement of 2-[125I]iodomelatonin from human MT1 receptor expressed in CHO cell membranes after 120 mins
T3 sequence (P48039 whole entry): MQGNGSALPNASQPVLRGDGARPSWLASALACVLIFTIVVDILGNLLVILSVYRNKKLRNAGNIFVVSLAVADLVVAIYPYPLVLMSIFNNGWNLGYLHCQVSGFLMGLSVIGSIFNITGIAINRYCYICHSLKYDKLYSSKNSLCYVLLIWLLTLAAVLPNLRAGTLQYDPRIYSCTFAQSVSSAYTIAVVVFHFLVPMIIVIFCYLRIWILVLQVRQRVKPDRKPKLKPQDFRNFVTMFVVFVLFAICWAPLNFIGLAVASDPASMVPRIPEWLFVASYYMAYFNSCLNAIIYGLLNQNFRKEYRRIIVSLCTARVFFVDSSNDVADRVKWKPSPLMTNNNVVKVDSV

[5] = molecular target: T3, Melatonin receptor type 1A; test: Intrinsic activity at human MT1 receptor expressed in CHO cell membranes after 1 hr by [35S]GTPgammaS binding assay; assay type: functional
[6] = species: Homo sapiens; test: Selectivity ratio of Ki for human MT1 receptor to Ki for human MT2 receptor

SMILES: COc1ccc2ccc3oc(CCNC(=O)C4CC4)cc3c2c1
Ki [1]: 11 nM
EC50 [2]: 5.8 nM
Ki [3]: > 10000 nM
Ki [4]: 73 nM
EC50 [5]: > 10000 nM

SMILES: COc1ccc2ccc3oc(CNC(=O)CF)cc3c2c1
Ki [1]: 0.7 nM
EC50 [2]: 1.1 nM
Ki [3]: > 10000 nM
Ki [4]: 5.7 nM
EC50 [5]: 9.5 nM

SMILES: COc1ccc2ccc3oc(CNC(=O)C4CC4)cc3c2c1
Ki [1]: 0.6 nM
EC50 [2]: 0.98 nM
Ki [3]: > 10000 nM
Ki [4]: 1.9 nM
EC50 [5]: 1 nM

SMILES: COc1ccc2ccc3oc(CCNC(C)=O)cc3c2c1
Ki [1]: 1.7 nM
EC50 [2]: > 10000 nM
Ki [3]: > 10000 nM
Ki [4]: 10 nM
EC50 [5]: > 10000 nM

SMILES: CCNC(=O)NCc1cc2c(ccc3ccc(OC)cc32)o1
Ki [1]: 4.2 nM
EC50 [2]: 10 nM
Ki [3]: > 10000 nM
Ki [4]: 17 nM
EC50 [5]: > 10000 nM

SMILES: COc1ccc2ccc3occ(CNC(=O)C4CC4)c3c2c1
Ki [1]: 15 nM
EC50 [2]: 8.8 nM
Ki [3]: > 10000 nM
Ki [4]: 20 nM
EC50 [5]: 1 nM

SMILES: COc1ccc2ccc3occ(CNC(=O)CF)c3c2c1
Ki [1]: 2.1 nM
EC50 [2]: 3.4 nM
Ki [3]: > 10000 nM
Ki [4]: 9.9 nM
EC50 [5]: 29 nM

SMILES: COc1ccc2ccc3occ(CNC(C)=O)c3c2c1
Ki [1]: 0.7 nM
EC50 [2]: 1.4 nM
Ki [3]: > 10000 nM
Ki [4]: 4.6 nM
EC50 [5]: 4.8 nM

SMILES: COc1ccc2ccc3occ(CNC(=O)C(C)C)c3c2c1
Ki [1]: 24 nM
EC50 [2]: 8.8 nM
Ki [3]: > 10000 nM
Ki [4]: 158 nM
EC50 [5]: 8.1 nM

SMILES: COc1ccc2ccc3occ(CCNC(=O)C4CC4)c3c2c1
Ki [1]: 13.3 nM
EC50 [2]: 3.2 nM
Ki [3]: > 1000 nM
Ki [4]: 236 nM
EC50 [5]: 5.2 nM

Ki [1]: 0.09 nM
EC50 [2]: 0.7 nM
Ki [3]: 140 nM
Ratio Ki [6]: 31
Ki [4]: 2.8 nM
EC50 [5]: 4.6 nM
SMILES: COc1ccc2ccc3occ(CCNC(C)=O)c3c2c1

Ki [1]: 7 nM
Ki [3]: 730 nM
Ki [4]: 140 nM
SMILES: CCNC(=S)NCc1cc2c(ccc3ccc(OC)cc32)o1

SMILES: CNC(=S)NCc1cc2c(ccc3ccc(OC)cc32)o1
Ki [1]: 0.8 nM
Ki [3]: > 10000 nM
Ki [4]: 43 nM

SMILES: CNC(=O)NCc1cc2c(ccc3ccc(OC)cc32)o1
Ki [3]: > 10000 nM

SMILES: COc1ccc2ccc3oc(CNC(C)=O)cc3c2c1
Ki [1]: 0.4 nM
EC50 [2]: 0.98 nM
Ki [3]: > 10000 nM
Ki [4]: 2.1 nM
EC50 [5]: 7.7 nM

SMILES: CCNC(=O)NCCc1cc2c(ccc3ccc(OC)cc32)o1
Ki [1]: 46 nM
Ki [3]: > 10000 nM
Ki [4]: 210 nM

SMILES: CCNC(=O)NCCc1coc2ccc3ccc(OC)cc3c12
Ki [1]: 226 nM
EC50 [2]: 6.2 nM
Ki [3]: > 1000 nM
Ki [4]: 157 nM
EC50 [5]: 75 nM
